Read-outs that look alike come from different tables or passages of the source.
Tests used:
eNOS = target: T1, eNOS (Bos taurus, UniProt P29473); experiment: Inhibitory effect on crude eNOS (conversion of L-[3H]arginine to L-[3H]citrulline); assay type: biochemical, Cow (pulmonary arterial endothelium cells, CPAE)
T1 construct: the resulting supernatant was used as the crude enzyme of eNOS; endogenous in cells; host or cells: CPAE (cow pulmonary arterial endothelium cells), 1% Triton X-100 extract
T1 sequence (P29473 2-1205): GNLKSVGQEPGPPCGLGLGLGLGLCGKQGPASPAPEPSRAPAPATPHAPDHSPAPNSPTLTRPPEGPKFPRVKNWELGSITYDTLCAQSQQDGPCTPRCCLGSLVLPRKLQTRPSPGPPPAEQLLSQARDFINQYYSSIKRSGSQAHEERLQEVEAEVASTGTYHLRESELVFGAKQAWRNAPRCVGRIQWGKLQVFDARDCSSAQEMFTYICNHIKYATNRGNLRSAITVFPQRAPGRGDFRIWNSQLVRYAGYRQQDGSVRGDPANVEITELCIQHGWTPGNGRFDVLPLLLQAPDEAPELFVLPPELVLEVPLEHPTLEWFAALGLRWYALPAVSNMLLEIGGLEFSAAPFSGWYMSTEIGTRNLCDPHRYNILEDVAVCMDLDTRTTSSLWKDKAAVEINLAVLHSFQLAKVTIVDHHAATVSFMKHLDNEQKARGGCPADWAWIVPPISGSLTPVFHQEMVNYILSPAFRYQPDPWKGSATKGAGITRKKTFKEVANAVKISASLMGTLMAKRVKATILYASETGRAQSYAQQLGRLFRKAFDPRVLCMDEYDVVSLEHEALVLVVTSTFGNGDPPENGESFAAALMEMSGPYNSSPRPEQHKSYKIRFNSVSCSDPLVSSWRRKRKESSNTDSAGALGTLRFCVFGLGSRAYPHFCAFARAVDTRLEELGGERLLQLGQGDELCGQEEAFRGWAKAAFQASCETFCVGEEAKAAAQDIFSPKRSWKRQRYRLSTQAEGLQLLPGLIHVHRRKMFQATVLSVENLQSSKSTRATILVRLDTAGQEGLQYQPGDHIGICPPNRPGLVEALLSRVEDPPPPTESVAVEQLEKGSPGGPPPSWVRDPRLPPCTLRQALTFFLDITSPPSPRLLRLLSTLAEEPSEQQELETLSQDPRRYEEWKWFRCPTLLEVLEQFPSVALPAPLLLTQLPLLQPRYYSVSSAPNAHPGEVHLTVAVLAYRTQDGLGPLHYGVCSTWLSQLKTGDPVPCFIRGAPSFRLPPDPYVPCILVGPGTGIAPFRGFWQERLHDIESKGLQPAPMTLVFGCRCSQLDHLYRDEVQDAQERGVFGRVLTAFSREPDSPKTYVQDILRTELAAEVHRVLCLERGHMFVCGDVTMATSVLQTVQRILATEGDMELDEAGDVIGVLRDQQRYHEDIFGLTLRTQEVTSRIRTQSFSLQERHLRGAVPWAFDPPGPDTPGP
Procedure: (§1) Compounds of the invention were evaluated for their inhibitory effect on the presently known three NOS isoforms.
Crude enzymes of the respective NOS isoforms were prepared by the following procedures (Nagafuji et al., Neuroreport 6, 1541-1545, 1995).
The crude enzyme of eNOS was prepared by the following procedure. Cow pulmonary arterial endothelium cells (CPAE) were cultured in a MEM medium containing 20% FBS. Several days later, the cells were detached from the flask using a 0.25% trypsin solution containing 1 mM EDTA and, after addition of a suitable amount of FBS, centrifuged at 1,000 rpm for 10 min. A suitable amount of Ca- and Mg-free phosphate buffer (pH 7.4) was added to the precipitating cells and they were centrifuged at 1,000 rpm for 10 min. The same step was repeated to wash the cells which, upon addition of 50 mM Tris-HCl (pH 7.4) containing 1% Triton X-100 and 1 mM DTT, were left to stand in ice for 1 h. Subsequently, the mixture was homogenized for 3 min and kept in ice for 30 min with occasional stirring. Finally, the mixture was centrifuged at 100,000×g for 60 min and the resulting supernatant was used as the crude enzyme of eNOS.
The method of measuring NOS activity was basically the same as already reported by the present inventors and consisted of determining quantitatively the conversion of a substrate L-[^3 H]arginine to a reaction product L-[^3 H] citrulline (Nagafuji et al., in Brain Edema IX (Ito et al, eds.) 60, pp. 285-288, 1994; Nagafuji et al., Neuroreport 6, 1541-1545, 1995)
The reaction solution consisted of 100 nM L-[^3 H] arginine, a prepared crude NOS enzyme sample (10-30 μg/ml protein), 1.25 mM CaCl2, 1 mM EDTA, 10 μg/ml calmodulin, 1 mM NADPH, 100 μM tetrahydrobiopterine, 10 μM FAD, 10 μM FMN and 50 mM Tris-HCl (pH 7.4), to which one of the compounds of the invention or one of the control compounds was added.
(§2) The reaction was started by addition of L-[^3 H] arginine. After incubation at 37° C. for 10 min, the reaction was terminated by addition of 2 ml of 50 mM Tris-HCl (pH 5.5) containing 1 mM EDTA and placing the mixture on ice. The reaction solution was passed through a cation-exchange resin column (Dowex AG50WX-8, Na^+ form, 3.2 ml) to separate the reaction product L-[^3 H] citrulline from the unreacted residual substrate L-[^3 H] arginine. The eluate was combined with another eluate resulting from the passage of a given amount of distilled water through the column and put into a minivial for recovery of L-[^3 H] citrulline. Thereafter, a scintillation fluid was added and the contained radioactivity was measured with a liquid scintillation counter to determine the amount of L-[^3 H] citrulline.
(§3) The activity of nNOS or eNOS was determined by subtracting the activity detected in the absence of CaCl2 and calmodulin from the activity detected in the presence of CaCl2 and calmodulin. The activity of iNOS was detected in the absence of CaCl2 and calmodulin. The protein concentration of each crude enzyme sample was determined with a micro-assay kit of Bio Rad Co. Each Experiment was conducted in a duplicate.
Table 81 lists the mean values of IC50 (the concentration necessary to inhibit 50% activity) of all test compounds against each NOS isoform. The table also lists the ratios of IC50 values to each other as an index of selectivity.

nNOS [1] = target: T2, nNOS (Rattus norvegicus, UniProt P29476); experiment: biochemical; parameters: species or system male Sprague Dawley (SD) rats (cerebral cortex); settings: for Selectivity eNOS/nNOS: ratio of IC50 values eNOS/nNOS; for Selectivity iNOS/nNOS: ratio of IC50 values iNOS/nNOS
T2 construct: a soluble cytosolic fraction of the finally obtained supernatant was used as the crude enzyme of nNOS; from tissue; host or cells: rat cerebral cortex, soluble cytosolic fraction (100,000×g supernatant)
Procedure: The crude enzyme of nNOS was prepared by the following procedure. Normal untreated male Sprague Dawley (SD) rats (body weight, 300-400 g) were decapitated; the whole brain was immediately taken out from each animal and the cerebral cortex was separated on ice. Then, 5 volumes of 50 mM Tris-HCl containing 1 mM DTT (pH 7.4) was added and the mixture was homogenized for 3 min and centrifuged at 1,000×g for 10 min. The resulting supernatant was further centrifuged at 100,000×g for 60 min and a soluble cytosolic fraction of the finally obtained supernatant was used as the crude enzyme of nNOS.

nNOS [2] = settings: reported in the literature; cited from earlier work
nNOS [3] = settings: mouse model of focal cerebral ischemia; cited from earlier work
iNOS [4] = target: T3, iNOS (Rattus norvegicus, UniProt Q06518); experiment: Inhibitory effect on crude iNOS (conversion of L-[3H]arginine to L-[3H]citrulline); assay type: biochemical, Rats (lungs, LPS treated); settings: for IC50: mean values, duplicate, crude enzyme from lungs of LPS-treated rats, 37° C. 10 min, read-out: Inhibitory action IC50 iNOS; for Selectivity eNOS/iNOS: ratio of IC50 values eNOS/iNOS
T3 construct: a soluble cytosolic fraction of the finally obtained supernatant was used as the crude enzyme of iNOS; from tissue; host or cells: lungs of LPS-treated rats, soluble cytosolic fraction (100,000×g supernatant)
Procedure: as §1
The crude enzyme of iNOS was prepared by the following procedure. Rats were administered LPS (10 mg/kg) intraperitoneally and, 6 h later, perfused in a transcardiac manner with physiological saline containing 10 U/ml of heparin; thereafter, lungs were taken out. Subsequently, 5 volumes of 50 mM Tris-HCl containing 1 mM DTT (pH 7.4) was added and the mixture was homogenized for 3 min, followed by centrifugation of the homogenate at 1,000×g for 10 min. The resulting supernatant was centrifuged at 100,000×g for 60 min and a soluble cytosolic fraction of the finally obtained supernatant was used as the crude enzyme of iNOS.
as §2, §3
The table also lists the ratios of IC50 values to each other as an index of selectivity.

iNOS [5] = settings: reported in the literature; cited from earlier work
NOS isoform = settings: reported in the literature; cited from earlier work
[6] = mean values, duplicate, crude enzyme from CPAE cells, 37° C. 10 min, read-out: Inhibitory action IC50 eNOS
[7] = mean values, duplicate, crude enzyme from rat cerebral cortex, 37° C. 10 min, read-out: Inhibitory action IC50 nNOS

| Structure (SMILES) | IC50 (eNOS; [6]) | IC50 (nNOS [1]; [7]) | Selectivity eNOS/nNOS (nNOS [1]) | also measured |
| --- | --- | --- | --- | --- |
| Cc1ccnc(Nc2cccc(CN)c2C)c1 [Example 481] | 1980 nM | 78.1 nM | 25 |  |
| CSC(=N)NCCC[C@H](N)C(=O)O [L-MIN, S-methyl-L-thiocitrulline] |  |  |  | selectivity for nNOS (nNOS [2]): a certain degree of selectivity for nNOS |
| Cc1ccnc(Nc2cccc(C3(N)CCC3)c2)c1 [Example 488] | 298 nM | 39.9 nM | 8 |  |
| Cc1ccnc(Nc2cccc(CN)c2OC(C)C)c1 [Example 543] | 250 nM | 12.5 nM | 20 |  |
| N=C(NCCC[C@H](N)C(=O)O)N[N+](=O)[O-] [L-NA, N^G -nitro-L-arginine, reference compound] |  |  |  | percent inhibition of nNOS activity and percent reduction of infarct volume (nNOS [3]): correlate to each other; IC50 (iNOS [4]): 3460 nM |
| Cc1ccnc(Nc2ccc(CCN)cc2)c1 [Example 489] |  |  |  | IC50 (nNOS [1]): 22.1 nM |
| CC(=N)NCCC[C@H](N)C(=O)O [L-NIO, N^G -iminoethyl-L-ornithine] |  |  |  | selectivity for iNOS (iNOS [5]): a certain degree of selectivity for iNOS |
| Cc1ccc([N+](=O)[O-])c(Nc2cccc(CN)c2)n1.Cl [Example 52, 2-(3-aminomethylphenylamino)-6-methyl-3-nitropyridine hydrochloride] | 1480 nM | 79.8 nM | 19 |  |
| CCSC(=N)NCCC[C@H](N)C(=O)O [L-EIN, S-ethyl-L-thiocitrulline] |  |  |  | selectivity for nNOS (nNOS [2]): a certain degree of selectivity for nNOS |
| CCc1ccc(Nc2cc(C)ccn2)cc1CN [Example 482] | 1350 nM | 50.5 nM | 27 |  |
| CCCOc1c(CN)cccc1Nc1cc(C)ccn1 [Example 506] | 1290 nM | 29.1 nM | 45 |  |
| COC(=O)[C@@H](N)CCCNC(=N)N[N+](=O)[O-] [L-NAME, N^G -nitro-L-arginine methyl ester] |  |  |  | highly selective inhibitory effect on a specific NOS isoform (NOS isoform): no existing NOS inhibitors including L-NA and N^G -nitro-L-arginine methyl ester (L-NAME) have a highly selective inhibitory effect on a specific NOS isoform |
| Cc1ccnc(Nc2ccccc2CCN)c1 [Example 484] |  |  | 18 | IC50 (eNOS): 1260 nM; IC50 (nNOS [1]): 69.2 nM |
| CCc1ccc([N+](=O)[O-])c(Nc2cccc(CN)c2)n1.Cl [Example 53, 2-(3-aminomethylphenylamino)-6-ethyl-3-nitropyridine hydrochloride] | 6620 nM | 86.1 nM | 77 |  |
| CCOc1c(Nc2cc(C)ccn2)ccc(C)c1CN [Example 522] | 398 nM | 19.7 nM | 20 |  |
| Cc1ccnc(Nc2ccc(Cl)c(CN)c2)c1 [Example 491] | 1770 nM | 45.8 nM | 39 |  |
| N=C(N)NN [AG, aminoguanidine] |  |  |  | selectivity for iNOS (iNOS [5]): a certain degree of selectivity for iNOS |
| Cc1ccnc(Nc2cccc(CN)c2Cl)c1 [Example 485] | 2880 nM | 54.4 nM | 53 | IC50 (iNOS [4]): 1770 nM; Selectivity eNOS/iNOS (iNOS [4]): 1.6; Selectivity iNOS/nNOS (nNOS [1]): 32 |
| CCOc1c(Nc2cc(C)ccn2)ccc(Cl)c1CN [Example 521] | 485 nM | 19.5 nM | 25 |  |
| CCOc1ccc(Nc2cc(C)ccn2)cc1CN [Example 483] | 711 nM | 65.4 nM | 11 |  |
| CCOc1c(CN)cccc1Nc1cc(C)ccn1 [Example 490] | 347 nM | 18.1 nM | 19 |  |
| Cc1ccnc(Nc2cccc(C(C)(C)N)c2)c1 [Example 479] | 802 nM | 66.9 nM | 12 |  |

The next lines start with results.

| IC50 (eNOS; [6]) | IC50 (nNOS [1]; [7]) | Selectivity eNOS/nNOS (nNOS [1]) | Structure (SMILES) | also measured |
| --- | --- | --- | --- | --- |
| 448 nM | 61.6 nM | 7 | Cc1ccnc(Nc2cccc(CN)c2)c1 [Example 478] |  |
| 947 nM | 70.8 nM | 13 | CCOc1ccc([N+](=O)[O-])c(Nc2cccc(CN)c2)n1 [Example 57] |  |
| 275 nM | 19.6 nM | 14 | COc1ccc([N+](=O)[O-])c(Nc2ccc(F)c(CN)c2)n1 [Example 467] |  |
| 403 nM | 20.8 nM | 19 | COc1ccc([N+](=O)[O-])c(Nc2cccc(CN)c2C)n1 [Example 458] |  |
| 2480 nM | 56.3 nM | 44 | CCOc1c(CN)cccc1Nc1nc(OC)ccc1[N+](=O)[O-] [Example 468] |  |
| 421 nM | 35.5 nM | 12 | COc1ccc([N+](=O)[O-])c(Nc2ccc(Cl)c(CN)c2)n1 [Example 466] |  |
| 1240 nM | 112 nM | 11 | COc1ccc([N+](=O)[O-])c(Nc2ccc(CCN)cc2)n1 [Example 460] |  |
| 586 nM | 29.8 nM | 20 | COc1ccc([N+](=O)[O-])c(Nc2cccc(CN)c2)c1 [Example 153] |  |
| 1000 nM | 31.2 nM | 32 | COc1ccc([N+](=O)[O-])c(Nc2cccc(CN)c2OC)n1 [Example 465] |  |
| 679 nM | 126 nM | 5 | Cc1ccc([N+](=O)[O-])c(Nc2cccc(CN)c2)c1 [Example 151] |  |
| 257 nM | 16.4 nM | 16 | COc1ccc([N+](=O)[O-])c(Nc2cccc(C(C)(C)N)c2)n1 [Example 462] |  |
| 713 nM | 25.9 nM | 28 | COc1c(CN)cccc1Nc1cc(C)ccn1 [Example 541] |  |
| 1610 nM | 126 nM | 13 | CSc1ccc([N+](=O)[O-])c(Nc2cccc(CN)c2)n1 [Example 61] |  |
| 994 nM | 40 nM | 25 | COc1ccc([N+](=O)[O-])c(Nc2cccc(CN)c2Cl)n1 [Example 469] |  |
| 322 nM | 22.6 nM | 14 | COc1ccc([N+](=O)[O-])c(Nc2cccc(CN)c2)n1 [Example 18] | IC50 (iNOS [4]): 917 nM; Selectivity eNOS/iNOS (iNOS [4]): 0.14; Selectivity iNOS/nNOS (nNOS [1]): 41 |

Reference: patent US6331553A, “Aromatic amine derivatives having NOS inhibiting action” (Chugai Seiyaku Kabushiki Kaisha, priority 1996, dated 2001)
